Measured values: patent publication US20050222402A1, “Dna encoding rat bombesin receptor subtype-3 (brs-3) and uses thereof” (priority 2001, published 2005)
Residue numbers refer to the chain shown, from its start. Non-standard residues stand in square brackets, D forms with d. Residues, ends and D or L forms follow the SMILES beside them. Nle = CCCC[C@H](N)C(=O)O; βAla = NCCC(=O)O

Tests used:
Experiment in all cases: Calcium mobilization assay (FLIPR), substitution mutant
Type in all cases: cell-based
Rat BRS-3/AMH (RB3-AMH) = molecular target: T1, Rat BRS-3/AMH (RB3-AMH) (Rattus norvegicus, UniProt Q8K418, D306A/P308H/V307M)
T1 construct: expressed in transfected cells; host or cells: 293EBNA cells, pE3 expression vector
T1 sequence (Q8K418 1-399 D306A/V307M/P308H): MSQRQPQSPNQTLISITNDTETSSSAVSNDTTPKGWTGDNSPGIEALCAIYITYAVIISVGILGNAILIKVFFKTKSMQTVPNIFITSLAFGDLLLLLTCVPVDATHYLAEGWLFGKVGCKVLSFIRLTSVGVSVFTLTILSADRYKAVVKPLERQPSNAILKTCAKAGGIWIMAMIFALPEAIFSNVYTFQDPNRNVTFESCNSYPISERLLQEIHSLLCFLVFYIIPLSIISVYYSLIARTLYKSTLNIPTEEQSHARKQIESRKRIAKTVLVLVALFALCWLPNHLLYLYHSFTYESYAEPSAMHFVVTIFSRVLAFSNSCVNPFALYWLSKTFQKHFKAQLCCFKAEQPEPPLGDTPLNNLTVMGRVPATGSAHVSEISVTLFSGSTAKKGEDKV
Description: (§1) Chimeric rat/human BRS-3 genes and substitution mutant rat BRS-3 genes were constructed by using PCR mutagenesis techniques (Fong, T. in Structure-function analysis of G protein coupled receptors, J, Wess, ed, Wiley-Liss, pp. 1-20, (1999)). All the mutant and wild type BRS-3 genes were cloned into pE3 expression vector which contains CMV early promoter, hygromycin-resistance gene and OriP segment from Epstein-Bar virus.
(§2) The functional activity of rat BRS-3 was also studied by measuring the agonist-induced calcium mobilization response using a Fluorescence Imaging Plate Reader (Molecular Devices, Sunnyvale, Calif.). Transfected 293EBNA cells were plated onto poly-D-lysine coated 96-well plates with black wall and clear bottom (Becton Dickinson, Franklin Lakes, N.J.). After 16-48 hr culture, the cells were loaded with 4 uM Fluo-3-AM fluorescent calcium-indicator dye (Molecular Probes, Eugene, OR) in assay buffer (Hank's balanced salts solution, 10 mM HEPES, pH7.4, 0.1% bovine serum albumin, 2.5 mM probenecid).
(§3) The changes in intracellular calcium concentration, as indicated by Fluo-3 fluorescence, were immediately measured by FLIPR. Maximal changes in fluorescence over base line were used to determine agonist response.
(§4) The EC50 values were mean±S.E. calculated from dose-response curves of 3-5 repeated experiments using FLIPR assays.
(§5) To determine which amino acids in the E3 loop of human BRS-3 conferred dYB activity upon rat BRS-3, several substitution BRS-3 mutants were made in which the amino acids in the E3 loop of rat BRS-3 were substituted with residues that match human BRS-3.

Rat BRS-3/IF (RB3-IF) = molecular target: T2, Rat BRS-3/IF (RB3-IF) (Rattus norvegicus, UniProt Q8K418, V310I/V311F)
T2 construct: expressed in transfected cells; host or cells: 293EBNA cells, pE3 expression vector
T2 sequence (Q8K418 1-399 V310I/V311F): T1 sequence (Q8K418 1-399 D306A/V307M/P308H) with A306D, M307V, H308P, V310I, V311F
Description: as §1, §2, §3, §4, §5

Rat BRS-3/SQT (RB3-SQT) = molecular target: T3, Rat BRS-3/SQT (RB3-SQT) (Rattus norvegicus, UniProt Q8K418, E299Q/S300T/Y298S)
T3 construct: expressed in transfected cells; host or cells: 293EBNA cells, pE3 expression vector
T3 sequence (Q8K418 1-399 Y298S/E299Q/S300T): T1 sequence (Q8K418 1-399 D306A/V307M/P308H) with Y298S, E299Q, S300T, A306D, M307V, H308P
Description: as §1, §2, §3, §4, §5

Rat BRS-3/VD (RB3-VD) = molecular target: T4, Rat BRS-3/VD (RB3-VD) (Rattus norvegicus, UniProt Q8K418, A302V/E303D)
T4 construct: expressed in transfected cells; host or cells: 293EBNA cells, pE3 expression vector
T4 sequence (Q8K418 1-399 A302V/E303D): T1 sequence (Q8K418 1-399 D306A/V307M/P308H) with A302V, E303D, A306D, M307V, H308P
Description: as §1, §2, §3, §4, §5

Structure (SMILES): CCCC[C@H](NC(=O)[C@H](Cc1ccccc1)NC(=O)[C@H](Cc1cnc[nH]1)NC(=O)CCNC(=O)[C@@H](NC(=O)[C@H](C)NC(=O)[C@H](Cc1c[nH]c2ccccc12)NC(=O)[C@H](CCC(N)=O)NC(=O)[C@H](N)Cc1ccc(O)cc1)C(C)C)C(N)=O [dYB, [D-Tyr6-betaAla11-Phe13-Nle14] bombesin (6-14)] (H-[dY]QWAV[βAla]HF[Nle]-NH2)
- EC50 (Rat BRS-3/AMH (RB3-AMH)): 370 ± 70 nM
- EC50 (Rat BRS-3/IF (RB3-IF)): 1300 ± 230 nM
- EC50 (Rat BRS-3/SQT (RB3-SQT)): 390 ± 80 nM
- EC50 (Rat BRS-3/VD (RB3-VD)): 930 ± 150 nM

Structure (SMILES): CCCC[C@H](NC(=O)[C@H](Cc1ccccc1)NC(=O)[C@H](Cc1c[nH]cn1)NC(=O)CCNC(=O)[C@@H](NC(=O)[C@H](C)NC(=O)[C@H](Cc1c[nH]c2ccccc12)NC(=O)[C@H](CCC(N)=O)NC(=O)[C@H](N)Cc1ccc(O)cc1)C(C)C)C(N)=O [dYB, [D-Tyr6-betaAla11-Phe13-Nle14] bombesin (6-14)] (H-[dY]QWAV[βAla]HF[Nle]-NH2)
- improvement of dYB potency in calcium mobilization (Rat BRS-3/AMH (RB3-AMH); RB3-AMH vs rat BRS-3): 6 fold
- effect of mutation on dYB receptor activity (Rat BRS-3/IF (RB3-IF); RBB3-IF vs rat BRS-3): little effect on the receptor activity
- improvement of dYB potency in calcium mobilization (Rat BRS-3/SQT (RB3-SQT); RB3-SQT vs rat BRS-3): 5 fold
- effect of mutation on dYB receptor activity (Rat BRS-3/VD (RB3-VD); RBB3-VD vs rat BRS-3): little effect on the receptor activity
